Measured values taken from patent EP0054593A1, “Myocardium protecting pyrrole derivatives with anti-arythmic and anti-platelet aggregation activity, process for their preparation and medicines containing them” (SANOFI S.A., priority 1980, dated 1982).
pIC50: −log10 of the molar value. Read-outs that look alike come from different tables or passages of the source.

What was measured:
[1] = system: tachycardie ventriculaire; test: Ventricular arrhythmia model: coronary metal coil, myocardial infarction, telemetered ECG; assay type: in vivo, chiens; details: 50 mg/kg P.O., dogs; for Effet sur la tachycardie ventriculaire: rythme sinusal ou amélioration: sinus rhythm restored or improvement of the ratio of abnormal to sinus complexes
Excerpt: Le pouvoir antiarythmique de ces molécules a été apprécié sur un modèle animal d'arythmie ventriculaire.
Des chiens bâtards sont anesthésiés puis soumis à la mise en place, par cathétérisme rétrograde, d'une spire métallique dans le lit coronarien. Dans le même temps, un micro-émetteur modulateur de fréquence est fixé au dos de l'animal et relié à deux électrodes précordiales.
L'animal remis dans son box accuse alors une thrombose progressive de l'artère interventriculaire antérieure. Ainsi, se constitue un infarctus myocardique localisé et transmural, générateur d'une activité électrique anormale, mais répétitive : tachycardie ventriculaire.
Dans cet état, les drogues sont administrées per os (P.O.) et le système télémétré permet de suivre en temps réel l'évolution de la disrythmie.
Un comptage des complexes systoliques sinusaux et pathologies est assuré en permanence par des procédés électroniques.
Ainsi, peut-on quantifier la qualité et la durée d'action du produit.
L'activité des produits essayés sur la tachycardie ventriculaire est exprimée soit par le rétablissement du rythme sinusal, soit par une amélioration notable du rapport : • nombre de complexes anormaux
nombre de complexes sinusaux

[2] = system: agrégation plaquettaire induite par le collagène; test: In vitro collagen-induced platelet aggregation in platelet-rich plasma (Born turbidimetric technique); assay type: cell-based, humain; details: for pIC50: 10 min; for inhibition at 100 µM: concentration 100 µM, inhibition of maximal aggregation amplitude versus control, read-out: % d'inhibition
Excerpt: (§1) Les études in vitro et ex vivo de l'activité antiagrégante ont été réalisées selon la technique turbidiurétrique de Born.
Les études in vitro ont été réalisées sur du plasma riche en plaquettes (PRP) préparé à partir de sang veineux humain.
Les diverses solutions des produits à tester ont été préparées extemporanément. Les CM 7753, 7611, 7640, 7921, 7954, - 40018, 40020 ont été dissous à une concentration de 2 x 10^-2 M dans l'acétone.
Des solutions aqueuses à 2 x 10 ^-3 M ont été préparées pour les CM 40169, 40178, 2 µl des solutions acétoniques des produits ou 40 µl des solutions aqueuses sont incubés pendant 10 min à 37°C avec, respectivement, 388 et 350 µl de PRP. Après cette période d'incubation, 10 µl de la solution de collagène à 40 µg/ml sont additionnés. Pour les contrôles, 2 µl d'acétone ou 40 µl d'eau distillée sont utilisés.
(§2) L'agrégation plaquettaire a été quantifiée par la détermination graphique de l'amplitude maximale d'agrégation (AM).
(§3) Les résultats sont exprimés en % d'inhibition de ce paramètre calculé par rapport au contrôle (100 % d'agrégation). Résultats

[3] = system: agrégation plaquettaire induite par le collagène; test: Ex vivo collagen-induced platelet aggregation after oral dosing (Born technique); assay type: in vivo, babouin; details: Papio, 120 h, four baboons, 50 mg/kg/j oral, after 5 days of treatment, read-out: % d'inhibition
Method: as §1
(§4) Les études ex vivo chez le babouin ont porté uniquement sur l'activité antiagrégante du CM 7753. Dans ce cas, le CM 7753 est administré par voie buccale à raison de 50 mg/kg/j pendant une période de 5 jours.
(§5) Les prélèvements sanguins pour l'analyse de l'agrégation plaquettaire ont été effectués avant l'administration du produit, 2 h après l'administration de 50 mg/kg au jour 1 et 2 h après la dernière administration au jour 5.
as §2, §3

[4] = system: ADP; test: Ex vivo ADP-induced platelet aggregation after oral dosing (Born technique); assay type: in vivo, babouin; details: baboons, 50 mg/kg/j oral
Method: as §1, §4, §5, §2, §3

| SMILES | Effet sur la tachycardie ventriculaire: rythme sinusal ou amélioration [1] | inhibition at 100 µM ([2]; human PRP, collagen) [%] | also measured |
| --- | --- | --- | --- |
| CC(C)N(CCC(C(N)=O)(c1ccccc1)n1cccc1)C(C)C (stereo not drawn) [CM 7611, Phényl-2 (pyrrolyl-l)-2 diisopropylamino-4 butyramide] | 70-90% | – | pIC50 [2]: ~4.52 |
| Cc1ccc(C)n1C(CCN(C(C)C)C(C)C)(C(N)=O)c1ccccc1 (stereo not drawn) [CM 7640] | Rythme sinusal ou amélioration à 90 % durant 90 min | – | Effet sur la tachycardie ventriculaire: duration of effect [1]: Rythme sinusal ou amélioration à 90 % durant 90 min; pIC50 [2]: ~4.52 |
| Cc1ccc(C)n1C(CCN(C(C)C)C(C)C)C(N)=O (stereo not drawn) [CM 7753, (Diméthyl-2,5 pyrrolyl-1)-2 diisopropylamino-4 butyramide] | 90% | – | pIC50 ([2]; human PRP, 10 min incubation at 37°C, collagen, approximate value, read-out: concentration qui inhibe à 50 % l'agrégation plaquettaire): ~4.00; inhibition at 50 mg/kg [3]: 100%; activité antiagrégante vis-à-vis de l'ADP [4]: activité antiagrégante de moindre importance |
| CC(C)N(CCC(C(N)=O)n1cccc1)C(C)C (stereo not drawn) [CM 7921] | – | 20 to 30 | – |
| CC(C)N(CCC(C(N)=O)(c1ccccn1)n1cccc1)C(C)C (stereo not drawn) [CM 7954, (Pyridyl-2)-2 (pyrrolyl-l)-2 diisopropylamino-4 butyramide] | – | – | pIC50 ([2]; read-out: concentration qui inhibe à 50 % l'agrégation plaquettaire): ~4.00 |
| Cc1ccc(C)n1C(CCN1CCN2CCCC2C1)C(N)=O (stereo not drawn) [CM 40018, (Diméthyl-2,5 pyrrolyl)-1 (diaza-1,4 bicyclo[4.3.0]-nonyl-4)-4 butyramide] | – | 20 to 30 | – |
| CCc1ccc(CC)n1C(CCN(C(C)C)C(C)C)C(N)=O (stereo not drawn) [CM 40020] | – | 20 to 30 | – |
| Cc1ccc(C)n1C(CCN(C(C)C)C1CCCCC1)C(N)=O (stereo not drawn) [CM 40169] | – | 20 to 30 | – |
| CCC(C)N(CCC(C(N)=O)n1c(C)ccc1C)C(C)CC (stereo not drawn) [CM 40178] | – | 20 to 30 | – |
